# Legend:
# Format in all cases: in vivo
# [1] = tested on: Kochia (Kochia scoparia); assay: Test A preemergence
# Summary of the method: (§1)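 Treatment is preemergence as a directed soil spray after planting, or postemergence at the one- to two-leaf stage, with test chemical in a non-phytotoxic solvent mixture plus surfactant. Plants stay in the greenhouse about 10 d before visual injury scoring on a 0 to 100 scale versus untreated controls.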
# [2] = tested on: barnyardgrass (Echinochloa crus-galli); assay: Test A preemergence
# Summary of the method: as §1
# [3] = tested on: giant foxtail (Setaria faberii); assay: Test A preemergence
# Summary of the method: as §1
# [4] = tested on: pigweed (Amaranthus retroflexus); assay: Test A preemergence
# [5] = tested on: ragweed (common ragweed, Ambrosia elatior); assay: Test A preemergence
# Summary of the method: as §1
# [6] = tested on: ryegrass, Italian (Italian ryegrass, Lolium multiflorum); assay: Test A preemergence
# Summary of the method: as §1
# [7] = tested on: Galium (catchweed bedstraw, Galium aparine); assay: Test A postemergence
# Summary of the method: as §1
# [8] = tested on: Kochia (Kochia scoparia); assay: Test A postemergence
# Summary of the method: as §1
# [9] = tested on: barnyardgrass (Echinochloa crus-galli); assay: Test A postemergence
# Summary of the method: as §1
# [10] = tested on: blackgrass (Alopecurus myosuroides); assay: Test A postemergence
# Summary of the method: as §1
# [11] = tested on: corn (Zea mays); assay: Test A postemergence
# Summary of the method: as §1
# [12] = tested on: giant foxtail (Setaria faberii); assay: Test A postemergence
# Summary of the method: as §1
# [13] = tested on: pigweed (Amaranthus retroflexus); assay: Test A postemergence
# Summary of the method: as §1
# [14] = tested on: ragweed (common ragweed, Ambrosia elatior); assay: Test A postemergence
# Summary of the method: as §1
# [15] = tested on: ryegrass, Italian (Italian ryegrass, Lolium multiflorum); assay: Test A postemergence
# Summary of the method: as §1
# [16] = tested on: wheat (Triticum aestivum); assay: Test A postemergence
# Summary of the method: as §1
# [17] = tested on: barnyardgrass (Echinochloa crus-galli); assay: Test B flooded paddy test; conditions: Flood, 250 g ai/ha; 0 to 100 scale where 0 is no effect and 100 is complete control; 13 to 15 d
# Summary of the method: (§2)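 Rating scale 0–100 (visual, vs untreated controls) after a 13–15 d greenhouse period; application to the flood layer, 3 cm above soil and maintained; plants at 2-leaf stage when treated.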
# [18] = tested on: ducksalad (Heteranthera limosa); assay: Test B flooded paddy test; conditions: Flood, 250 g ai/ha; 0 to 100 scale where 0 is no effect and 100 is complete control; 13 to 15 d
# Summary of the method: as §2
# [19] = tested on: rice (Oryra sativa); assay: Test B flooded paddy test; conditions: Flood, 250 g ai/ha; 0 to 100 scale where 0 is no effect and 100 is complete control; 13 to 15 d
# Summary of the method: as §2
# [20] = tested on: sedge, umbrella (small-flower umbrella sedge, Cyperus difformis); assay: Test B flooded paddy test; conditions: Flood, 250 g ai/ha; 0 to 100 scale where 0 is no effect and 100 is complete control; 13 to 15 d
# Summary of the method: as §2
# [21] = 125 g ai/ha, Preemergence, visual injury after approximately 10 d, 0 to 100 scale where 0 is no effect and 100 is complete control
# [22] = Preemergence, 500 g ai/ha, visual injury approx. 10 d
# [23] = 125 g ai/ha, postemergence, visual rating after approx. 10 d, 0 to 100 scale (0 no effect, 100 complete control)
# [24] = Postemergence, 500 g ai/ha, 0 to 100 scale where 0 is no effect and 100 is complete control
# [25] = 500 g ai/ha, preemergence, 0 to 100 scale, 0 = no effect, 100 = complete control
SMILES,"Plant response rating, Kochia [1, 21]","Plant response rating, Barnyardgrass [2, 21]","Plant response rating, Foxtail, Giant [3, 21]","Plant response rating, Pigweed [4, 21]","Plant response rating, Ragweed [5, 21]","Plant response rating, Ryegrass, Italian [6, 21]","Plant response rating, Galium [7, 23]","Plant response rating, Galium [7, 24]","Plant response rating, Kochia [8, 23]","Plant response rating, Kochia [8, 24]","Plant response rating, Barnyardgrass [9, 23]","Plant response rating, Barnyardgrass [9, 24]","Plant response rating, Blackgrass [10, 23]","Plant response rating, Blackgrass [10, 24]","Plant response rating, Corn [11, 23]","Plant response rating, Corn [11, 24]","Plant response rating, Foxtail, Giant [12, 23]","Plant response rating, Foxtail, Giant [12, 24]","Plant response rating, Pigweed [13, 23]","Plant response rating, Pigweed [13, 24]",other results
C#CCN1CC(c2cccc(C(F)(F)F)c2)C(C(=O)Nc2ccccc2F)C1=O (stereo not drawn) [Compound 607],0,0,80,0,0,0,0,0,0,0,20,60,0,0,0,0,20,60,0,0,"Kochia plant response rating (0 to 100 scale, 0 is no effect, 100 is complete control) [1, 22]: 0; Barnyardgrass plant response rating (0 to 100 scale, 0 is no effect, 100 is complete control) [2, 22]: 30; Foxtail, Giant plant response rating (0 to 100 scale, 0 is no effect, 100 is complete control) [3, 22]: 90; Pigweed plant response rating (0 to 100 scale, 0 is no effect, 100 is complete control) [4, 22]: 0; Ragweed plant response rating (0 to 100 scale, 0 is no effect, 100 is complete control) [5, 22]: 0; Ryegrass, Italian plant response rating (0 to 100 scale, 0 is no effect, 100 is complete control) [6, 22]: 0; Plant response rating, Ragweed [14, 23]: 0; Plant response rating, Ragweed [14, 24]: 0; Plant response rating, Ryegrass, Italian [15, 23]: 0; Plant response rating, Ryegrass, Italian [15, 24]: 0; Plant response rating, Wheat [16, 23]: 0; Plant response rating, Wheat [16, 24]: 20; Plant response rating, Barnyardgrass [17]: 0; Plant response rating, Ducksalad [18]: 50; Plant response rating, Rice [19]: 0; Plant response rating, Sedge, Umbrella [20]: 0"
O=C1NCC(c2ccc(F)cc2F)C1C(=O)Nc1ccccc1F (stereo not drawn) [Compound 620],0,70,80,0,0,0,0,20,0,0,20,60,0,0,0,0,30,50,0,0,"Plant response rating, Kochia [1, 25]: 20; Plant response rating, Barnyardgrass [2, 25]: 80; Plant response rating, Foxtail, Giant [3, 25]: 90; Plant response rating, Pigweed [4, 25]: 0; Plant response rating, Ragweed [5, 25]: 0; Plant response rating, Ryegrass, Italian [6, 25]: 0; Plant response rating, Ragweed [14, 23]: 0; Plant response rating, Ragweed [14, 24]: 0; Plant response rating, Ryegrass, Italian [15, 23]: 0; Plant response rating, Ryegrass, Italian [15, 24]: 0; Plant response rating, Wheat [16, 23]: 0; Plant response rating, Wheat [16, 24]: 0; Plant response rating, Barnyardgrass [17]: 10; Plant response rating, Ducksalad [18]: 65; Plant response rating, Rice [19]: 0; Plant response rating, Sedge, Umbrella [20]: 0"
